Columns and labels:
[1] = compound: Nc1ncn([C@H]2C[C@H](O)[C@@H](CO)O2)c(=O)n1 [Decitabine]; assay: relative viability (nuclei count vs DMSO), 5 days (fraction); higher = more cells survive
Method in brief: (§1)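 In 1536-well plates, lung cancer cell lines rested overnight at 37 °C before five library-drug doses (not always all listed), √10 apart, were pinned onto vehicle-anchored plates. Nuclei were counted with MetaXpress from 4× Hoechst images taken after 5 days without medium change. Viability compares treated-well with vehicle-well nuclei as a median over plates, and plates needed control CV below 25% plus at least one doubling to pass.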

[2] = compound: COc1cc2c(Oc3ccc4[nH]c(C)cc4c3F)ncnc2cc1OCCCN1CCCC1 [Cediranib]; assay: as above
Method in brief: as §1

With NCI-H1648 the relative viability ([1]; 0.04 µM) was 0.82, the relative viability ([1]; 0.1265 µM) was 0.733 and the relative viability ([1]; 0.4 µM) was 0.474. For the same cell line, the relative viability ([1]; 1.265 µM) was 0.387, the relative viability ([1]; 2 µM, anchor plate) was 0.509 and the relative viability ([1]; 4 µM) was 0.366. For the same cell line, the relative viability ([2]; 0.04 µM) was 0.627, the relative viability ([2]; 0.1265 µM) was 0.423 and the relative viability ([2]; 0.4 µM) was 0.71. It also gave a relative viability ([2]; 1.265 µM) of 0.773 and a relative viability ([2]; 4 µM) of 0.791.
NCI-H1703 showed a relative viability ([1]; 0.04 µM) of 0.772, a relative viability ([1]; 0.1265 µM) of 0.669 and a relative viability ([1]; 0.4 µM) of 0.288. The relative viability ([1]; 1.265 µM) was 0.332, the relative viability ([1]; 4 µM) was 0.246 and the relative viability ([2]; 0.04 µM) was 0.819. For the same cell line, the relative viability ([2]; 0.1265 µM) was 0.677, the relative viability ([2]; 0.4 µM) was 0.471 and the relative viability ([2]; 1.265 µM) was 0.363. The relative viability ([2]; 4 µM) was 0.393.
In the case of NCI-H2126, the relative viability ([1]; 0.04 µM) is reported as 0.906, the relative viability ([1]; 0.1265 µM) is reported as 0.958 and the relative viability ([1]; 0.4 µM) is reported as 0.709. For the same cell line, the relative viability ([1]; 1.265 µM) was 0.633, the relative viability ([1]; 2 µM, anchor plate) was 0.573 and the relative viability ([1]; 4 µM) was 0.582. The relative viability ([2]; 0.04 µM) was 0.971, the relative viability ([2]; 0.1265 µM) was 0.987 and the relative viability ([2]; 0.4 µM) was 0.955. It also gave a relative viability ([2]; 1.265 µM) of 0.809 and a relative viability ([2]; 4 µM) of 0.957.
HCC-827 was tested, and the relative viability ([1]; 0.04 µM) was 0.306, the relative viability ([1]; 0.1265 µM) was 0.483 and the relative viability ([1]; 0.4 µM) was 0.398. For the same cell line, the relative viability ([1]; 1.265 µM) was 0.288, the relative viability ([1]; 2 µM, anchor plate) was 0.325 and the relative viability ([1]; 4 µM) was 0.377. For the same cell line, the relative viability ([2]; 0.04 µM) was 1.19, the relative viability ([2]; 0.4 µM) was 1.02 and the relative viability ([2]; 1.265 µM) was 1.04. For the same cell line, the relative viability ([2]; 4 µM) was 1.03.
With ABC-1 the relative viability ([1]; 0.04 µM) was 0.804, the relative viability ([1]; 0.1265 µM) was 0.97 and the relative viability ([1]; 0.4 µM) was 0.758. For the same cell line, the relative viability ([1]; 1.265 µM) was 0.733, the relative viability ([1]; 2 µM, anchor plate) was 1.12 and the relative viability ([1]; 4 µM) was 0.67. For the same cell line, the relative viability ([2]; 0.04 µM) was 0.995, the relative viability ([2]; 0.1265 µM) was 1.11 and the relative viability ([2]; 0.4 µM) was 0.851. The relative viability ([2]; 1.265 µM) was 0.759 and the relative viability ([2]; 4 µM) was 0.92.
Cell Line NCI-H650 has a relative viability ([1]; 0.04 µM) of 0.717, a relative viability ([1]; 0.1265 µM) of 0.596 and a relative viability ([1]; 0.4 µM) of 0.363. It also gave a relative viability ([1]; 1.265 µM) of 0.325, a relative viability ([1]; 2 µM, anchor plate) of 0.31 and a relative viability ([1]; 4 µM) of 0.332. It also gave a relative viability ([2]; 0.04 µM) of 0.892, a relative viability ([2]; 0.1265 µM) of 0.787 and a relative viability ([2]; 0.4 µM) of 0.961. It also gave a relative viability ([2]; 1.265 µM) of 0.87 and a relative viability ([2]; 4 µM) of 0.996.
In the case of BEN, the relative viability ([1]; 0.04 µM) is reported as 0.848, the relative viability ([1]; 0.1265 µM) is reported as 0.853 and the relative viability ([1]; 0.4 µM) is reported as 0.663. It also gave a relative viability ([1]; 1.265 µM) of 0.587, a relative viability ([1]; 2 µM, anchor plate) of 0.771 and a relative viability ([1]; 4 µM) of 0.505. The relative viability ([2]; 0.04 µM) was 1.07, the relative viability ([2]; 0.1265 µM) was 0.643 and the relative viability ([2]; 0.4 µM) was 0.903. The relative viability ([2]; 1.265 µM) was 0.758 and the relative viability ([2]; 4 µM) was 0.931.
Work on ChaGo-K-1 yielded a relative viability ([1]; 0.04 µM) of 0.933, a relative viability ([1]; 0.1265 µM) of 0.816 and a relative viability ([1]; 0.4 µM) of 0.537. For the same cell line, the relative viability ([1]; 1.265 µM) was 0.482, the relative viability ([1]; 2 µM, anchor plate) was 0.537 and the relative viability ([1]; 4 µM) was 0.477. The relative viability ([2]; 0.04 µM) was 0.965, the relative viability ([2]; 0.1265 µM) was 0.733 and the relative viability ([2]; 0.4 µM) was 0.952. It also gave a relative viability ([2]; 1.265 µM) of 1.1 and a relative viability ([2]; 4 µM) of 0.997.
Cell Line NCI-H23 has a relative viability ([1]; 0.04 µM) of 0.671, a relative viability ([1]; 0.1265 µM) of 0.462 and a relative viability ([1]; 0.4 µM) of 0.341. It also gave a relative viability ([1]; 1.265 µM) of 0.26, a relative viability ([1]; 2 µM, anchor plate) of 0.324 and a relative viability ([1]; 4 µM) of 0.293. The relative viability ([2]; 0.04 µM) was 0.882, the relative viability ([2]; 0.1265 µM) was 0.75 and the relative viability ([2]; 0.4 µM) was 0.847. For the same cell line, the relative viability ([2]; 1.265 µM) was 0.844 and the relative viability ([2]; 4 µM) was 1.
NCI-H1975 showed a relative viability ([1]; 0.04 µM) of 0.594, a relative viability ([1]; 0.1265 µM) of 0.526 and a relative viability ([1]; 0.4 µM) of 0.372. The relative viability ([1]; 1.265 µM) was 0.352, the relative viability ([1]; 2 µM, anchor plate) was 0.394 and the relative viability ([1]; 4 µM) was 0.358. It also gave a relative viability ([2]; 0.04 µM) of 0.974, a relative viability ([2]; 0.1265 µM) of 0.983 and a relative viability ([2]; 0.4 µM) of 0.914. It also gave a relative viability ([2]; 1.265 µM) of 0.956 and a relative viability ([2]; 4 µM) of 0.939.
In the case of COR-L 105, the relative viability ([1]; 0.04 µM) is reported as 0.666, the relative viability ([1]; 0.1265 µM) is reported as 0.798 and the relative viability ([1]; 0.4 µM) is reported as 0.711. It also gave a relative viability ([1]; 1.265 µM) of 0.648, a relative viability ([1]; 2 µM, anchor plate) of 0.696 and a relative viability ([1]; 4 µM) of 0.577. For the same cell line, the relative viability ([2]; 0.04 µM) was 0.862, the relative viability ([2]; 0.1265 µM) was 0.911 and the relative viability ([2]; 0.4 µM) was 0.944. For the same cell line, the relative viability ([2]; 1.265 µM) was 0.889 and the relative viability ([2]; 4 µM) was 0.923.
LK-2 gave a relative viability ([1]; 0.04 µM) of 0.848, a relative viability ([1]; 0.1265 µM) of 1.03 and a relative viability ([1]; 0.4 µM) of 0.721. It also gave a relative viability ([1]; 1.265 µM) of 0.472, a relative viability ([1]; 2 µM, anchor plate) of 0.302 and a relative viability ([1]; 4 µM) of 0.484. The relative viability ([2]; 0.04 µM) was 1.03, the relative viability ([2]; 0.1265 µM) was 0.86 and the relative viability ([2]; 0.4 µM) was 0.909. For the same cell line, the relative viability ([2]; 1.265 µM) was 0.965 and the relative viability ([2]; 4 µM) was 0.821.
With EKVX the relative viability ([1]; 0.04 µM) was 0.71, the relative viability ([1]; 0.1265 µM) was 0.809 and the relative viability ([1]; 0.4 µM) was 0.647. The relative viability ([1]; 1.265 µM) was 0.418, the relative viability ([1]; 2 µM, anchor plate) was 0.358 and the relative viability ([1]; 4 µM) was 0.375. It also gave a relative viability ([2]; 0.04 µM) of 1.05, a relative viability ([2]; 0.1265 µM) of 0.929 and a relative viability ([2]; 0.4 µM) of 0.888. It also gave a relative viability ([2]; 1.265 µM) of 0.844 and a relative viability ([2]; 4 µM) of 1.03.
Work on NCI-H2009 yielded a relative viability ([1]; 0.04 µM) of 0.837, a relative viability ([1]; 0.1265 µM) of 0.706 and a relative viability ([1]; 0.4 µM) of 0.504. It also gave a relative viability ([1]; 1.265 µM) of 0.349, a relative viability ([1]; 2 µM, anchor plate) of 0.387 and a relative viability ([1]; 4 µM) of 0.343. The relative viability ([2]; 0.04 µM) was 1.01, the relative viability ([2]; 0.1265 µM) was 0.958 and the relative viability ([2]; 0.4 µM) was 0.984. The relative viability ([2]; 1.265 µM) was 0.988 and the relative viability ([2]; 4 µM) was 1.1.
Work on NCI-H838 yielded a relative viability ([1]; 0.04 µM) of 0.687, a relative viability ([1]; 0.1265 µM) of 0.59 and a relative viability ([1]; 0.4 µM) of 0.434. For the same cell line, the relative viability ([1]; 1.265 µM) was 0.461, the relative viability ([1]; 2 µM, anchor plate) was 0.466 and the relative viability ([1]; 4 µM) was 0.314. The relative viability ([2]; 0.04 µM) was 1.02, the relative viability ([2]; 0.1265 µM) was 0.965 and the relative viability ([2]; 0.4 µM) was 0.916. The relative viability ([2]; 1.265 µM) was 0.827 and the relative viability ([2]; 4 µM) was 1.06.
For NCI-H2085, the relative viability ([1]; 0.04 µM) was 0.812, the relative viability ([1]; 0.1265 µM) was 0.768 and the relative viability ([1]; 0.4 µM) was 0.65. For the same cell line, the relative viability ([1]; 1.265 µM) was 0.528, the relative viability ([1]; 2 µM, anchor plate) was 0.559 and the relative viability ([1]; 4 µM) was 0.528. The relative viability ([2]; 0.04 µM) was 1, the relative viability ([2]; 0.1265 µM) was 1.08 and the relative viability ([2]; 0.4 µM) was 0.946. For the same cell line, the relative viability ([2]; 1.265 µM) was 0.99 and the relative viability ([2]; 4 µM) was 0.97.

— the supplement of paper PMC10307832
